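Dose response: 5 concentrations. Exposure: 48 h. Format: 96-well plates. Endpoint: linear interpolation; highest concentration if not reached. GI50: concentration for 50% inhibition of growth.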 Calls of active or inactive are those of the source. No stated cut-off is given here; in the data, active = GI50 up to about 1.1 µM and inactive = higher.
Columns and labels:
Test in all cases: growth of human tumour cells (NCI), 48 h
ACHN = test system: ACHN
HCT-116 = test system: HCT-116
EKVX = test system: EKVX
UACC-62 = test system: UACC-62
M14 = test system: M14
UACC-257 = test system: UACC-257
Malme-3M = test system: Malme-3M
BT-549 = test system: BT-549
OVCAR-3 = test system: OVCAR-3
PC-3 = test system: PC-3
SK-MEL-5 = test system: SK-MEL-5
HT-29 = test system: HT-29
RPMI-8226 = test system: RPMI-8226
SNB-75 = test system: SNB-75
MDA-MB-231 = test system: MDA-MB-231
SK-MEL-28 = test system: SK-MEL-28
786-0 = test system: 786-0
HL-60 = test system: HL-60
MOLT-4 = test system: MOLT-4
IGROV-1 = test system: IGROV-1
HOP-92 = test system: HOP-92
CAKI-1 = test system: CAKI-1
KM12 = test system: KM12
K562 = test system: K562
HCT-15 = test system: HCT-15
NCI-H226 = test system: NCI-H226
SN12C = test system: SN12C
MDA-MB-435 = test system: MDA-MB-435
TK-10 = test system: TK-10
SK-MEL-2 = test system: SK-MEL-2
UO-31 = test system: UO-31
SR = test system: SR
SF-268 = test system: SF-268
OVCAR-8 = test system: OVCAR-8
LOX IMVI = test system: LOX IMVI
NCI-H460 = test system: NCI-H460
NCI-H23 = test system: NCI-H23
T47D = test system: T47D
RXF 393 = test system: RXF 393
A549 = test system: A549
OVCAR-5 = test system: OVCAR-5
HOP-62 = test system: HOP-62
OVCAR-4 = test system: OVCAR-4
Hs-578T = test system: Hs-578T
NCI-H522 = test system: NCI-H522
DU-145 = test system: DU-145
MDA-N = test system: MDA-N
SK-OV-3 = test system: SK-OV-3
SNB-19 = test system: SNB-19
MCF7 = test system: MCF7
HCC 2998 = test system: HCC 2998
COLO 205 = test system: COLO 205
NCI/ADR-RES = test system: NCI/ADR-RES
U-251 = test system: U-251
SF-295 = test system: SF-295
SW-620 = test system: SW-620
SF-539 = test system: SF-539
A498 = test system: A498
CCRF-CEM = test system: CCRF-CEM

`O=C(Nc1cccc2cnccc12)c1cc2c(cc1Cl)Sc1nccn1S2(=O)=O` was tested, and the GI50 (ACHN) was 28.3 µM (inactive), the GI50 (HCT-116) was 4.74 µM (inactive) and the GI50 (EKVX) was 20.7 µM (inactive). The GI50 (UACC-62) was 12.4 µM (inactive), the GI50 (M14) was > 100 µM (inactive) and the GI50 (UACC-257) was 18.1 µM (inactive). The GI50 (Malme-3M) was 19.1 µM (inactive), the GI50 (BT-549) was 10.4 µM (inactive) and the GI50 (OVCAR-3) was 19.9 µM (inactive). For the same compound, the GI50 (PC-3) was 23.3 µM (inactive), the GI50 (SK-MEL-5) was 12.1 µM (inactive) and the GI50 (HT-29) was 14.6 µM (inactive). The GI50 (RPMI-8226) was 6.11 µM (inactive), the GI50 (SNB-75) was 15.5 µM (inactive) and the GI50 (MDA-MB-231) was 14.9 µM (inactive). For the same compound, the GI50 (SK-MEL-28) was 17.6 µM (inactive), the GI50 (786-0) was 10.9 µM (inactive) and the GI50 (HL-60) was 4.62 µM (inactive). For the same compound, the GI50 (MOLT-4) was 12.9 µM (inactive), the GI50 (IGROV-1) was 15.8 µM (inactive) and the GI50 (HOP-92) was 21.4 µM (inactive). For the same compound, the GI50 (CAKI-1) was 25.8 µM (inactive), the GI50 (KM12) was 4.66 µM (inactive) and the GI50 (K562) was 16.2 µM (inactive). The GI50 (HCT-15) was 8.71 µM, the GI50 (NCI-H226) was 18.4 µM (inactive) and the GI50 (SN12C) was 14.4 µM (inactive). The GI50 (MDA-MB-435) was 6.76 µM (inactive), the GI50 (TK-10) was 24.4 µM (inactive) and the GI50 (SK-MEL-2) was 13.5 µM (inactive). For the same compound, the GI50 (UO-31) was 18.6 µM (inactive), the GI50 (SR) was 3.28 µM (inactive) and the GI50 (SF-268) was 16.2 µM (inactive). For the same compound, the GI50 (OVCAR-8) was 10.3 µM (inactive), the GI50 (LOX IMVI) was 5.65 µM (inactive) and the GI50 (NCI-H460) was 7.82 µM (inactive). The GI50 (NCI-H23) was 6.67 µM (inactive), the GI50 (T47D) was 6 µM (inactive) and the GI50 (RXF 393) was 8.2 µM (inactive). The GI50 (A549) was 27.7 µM (inactive), the GI50 (OVCAR-5) was 25.2 µM (inactive) and the GI50 (HOP-62) was 14 µM (inactive). The GI50 (OVCAR-4) was 15.2 µM (inactive), the GI50 (Hs-578T) was 20.1 µM (inactive) and the GI50 (NCI-H522) was 13.1 µM (inactive). For the same compound, the GI50 (DU-145) was 13.6 µM (inactive), the GI50 (MDA-N) was 7.01 µM (inactive) and the GI50 (SK-OV-3) was 40 µM (inactive). For the same compound, the GI50 (SNB-19) was 17.9 µM (inactive), the GI50 (MCF7) was 5.36 µM (inactive) and the GI50 (HCC 2998) was 15.7 µM (inactive). The GI50 (COLO 205) was 15.3 µM (inactive), the GI50 (NCI/ADR-RES) was 14.4 µM (inactive) and the GI50 (U-251) was 10.4 µM (inactive). For the same compound, the GI50 (SF-295) was 15.4 µM (inactive), the GI50 (SW-620) was 15.5 µM (inactive) and the GI50 (SF-539) was 14.6 µM (inactive).
For `COc1cc(C(c2c(O)c3ccccc3oc2=O)c2c(O)c3ccccc3oc2=O)cc(Br)c1O`, the GI50 (ACHN) was 17.4 µM (inactive), the GI50 (HCT-116) was 17.5 µM (inactive) and the GI50 (EKVX) was 18.8 µM (inactive). The GI50 (UACC-62) was 16 µM (inactive), the GI50 (M14) was 16.8 µM (inactive) and the GI50 (UACC-257) was 17.3 µM (inactive). For the same compound, the GI50 (Malme-3M) was 16.8 µM (inactive), the GI50 (BT-549) was 17 µM (inactive) and the GI50 (OVCAR-3) was 15.9 µM (inactive). The GI50 (PC-3) was 19.1 µM (inactive), the GI50 (SK-MEL-5) was 16.3 µM (inactive) and the GI50 (HT-29) was 20 µM (inactive). The GI50 (RPMI-8226) was 19.8 µM (inactive), the GI50 (SNB-75) was 18.8 µM (inactive) and the GI50 (MDA-MB-231) was 17.8 µM (inactive). For the same compound, the GI50 (SK-MEL-28) was 21.6 µM (inactive), the GI50 (786-0) was 17.7 µM (inactive) and the GI50 (HL-60) was 27.7 µM (inactive). The GI50 (MOLT-4) was 20.1 µM (inactive), the GI50 (IGROV-1) was 15.6 µM (inactive) and the GI50 (HOP-92) was 12.5 µM (inactive). For the same compound, the GI50 (CAKI-1) was 15.7 µM (inactive), the GI50 (KM12) was 17.5 µM (inactive) and the GI50 (K562) was 30.3 µM (inactive). For the same compound, the GI50 (HCT-15) was 17.7 µM, the GI50 (NCI-H226) was 21.5 µM (inactive) and the GI50 (SN12C) was 15.8 µM (inactive). For the same compound, the GI50 (A498) was 15.9 µM (inactive), the GI50 (MDA-MB-435) was 20.3 µM (inactive) and the GI50 (TK-10) was 16.1 µM (inactive). For the same compound, the GI50 (SK-MEL-2) was 23.8 µM (inactive), the GI50 (UO-31) was 16.4 µM (inactive) and the GI50 (SR) was 14 µM (inactive). For the same compound, the GI50 (SF-268) was 13.8 µM (inactive), the GI50 (OVCAR-8) was 17.3 µM (inactive) and the GI50 (LOX IMVI) was 16 µM (inactive). For the same compound, the GI50 (NCI-H23) was 22.2 µM (inactive), the GI50 (T47D) was 22.8 µM (inactive) and the GI50 (RXF 393) was 17.4 µM (inactive). The GI50 (A549) was 18.4 µM (inactive), the GI50 (OVCAR-5) was 23.5 µM (inactive) and the GI50 (HOP-62) was 18.6 µM (inactive). For the same compound, the GI50 (OVCAR-4) was 15.4 µM (inactive), the GI50 (Hs-578T) was 20.2 µM (inactive) and the GI50 (NCI-H522) was 12.9 µM (inactive). For the same compound, the GI50 (DU-145) was 17.4 µM (inactive), the GI50 (MDA-N) was 18.4 µM (inactive) and the GI50 (SK-OV-3) was 20.1 µM (inactive). For the same compound, the GI50 (SNB-19) was 18.6 µM (inactive), the GI50 (MCF7) was 16.2 µM (inactive) and the GI50 (COLO 205) was 18.2 µM (inactive). For the same compound, the GI50 (NCI/ADR-RES) was 23 µM (inactive), the GI50 (U-251) was 16.8 µM (inactive) and the GI50 (SF-295) was 21.1 µM (inactive). For the same compound, the GI50 (SW-620) was 20.6 µM (inactive) and the GI50 (SF-539) was 15.6 µM (inactive).
With `COC(=O)Cc1c(/C=C/C(C)(C)n2cnc(CCN3C(=O)CCC3=O)c2)[nH]c2ccccc12` the GI50 (ACHN) was 95.5 µM (inactive), the GI50 (HCT-116) was > 100 µM (inactive) and the GI50 (EKVX) was 13.7 µM (inactive). For the same compound, the GI50 (CCRF-CEM) was 40.4 µM (inactive), the GI50 (UACC-62) was 14.2 µM (inactive) and the GI50 (M14) was > 100 µM (inactive). The GI50 (UACC-257) was > 100 µM (inactive), the GI50 (Malme-3M) was 37 µM (inactive) and the GI50 (BT-549) was > 100 µM (inactive). For the same compound, the GI50 (OVCAR-3) was > 100 µM (inactive), the GI50 (PC-3) was > 100 µM (inactive) and the GI50 (SK-MEL-5) was 66.8 µM (inactive). For the same compound, the GI50 (HT-29) was 35.4 µM (inactive), the GI50 (SNB-75) was 50.4 µM (inactive) and the GI50 (MDA-MB-231) was > 100 µM (inactive). The GI50 (SK-MEL-28) was > 100 µM (inactive), the GI50 (786-0) was > 100 µM (inactive) and the GI50 (HL-60) was > 100 µM (inactive). The GI50 (MOLT-4) was 57.3 µM (inactive), the GI50 (IGROV-1) was > 100 µM (inactive) and the GI50 (HOP-92) was 53.6 µM (inactive). For the same compound, the GI50 (CAKI-1) was > 100 µM (inactive), the GI50 (KM12) was > 100 µM (inactive) and the GI50 (K562) was > 100 µM (inactive). The GI50 (HCT-15) was > 100 µM, the GI50 (NCI-H226) was > 100 µM (inactive) and the GI50 (SN12C) was > 100 µM (inactive). For the same compound, the GI50 (A498) was > 100 µM (inactive), the GI50 (MDA-MB-435) was > 100 µM (inactive) and the GI50 (TK-10) was > 100 µM (inactive). The GI50 (SK-MEL-2) was > 100 µM (inactive), the GI50 (UO-31) was 74.8 µM (inactive) and the GI50 (SR) was 61.4 µM (inactive). For the same compound, the GI50 (SF-268) was 59.6 µM (inactive), the GI50 (OVCAR-8) was > 100 µM (inactive) and the GI50 (LOX IMVI) was > 100 µM (inactive). For the same compound, the GI50 (NCI-H460) was > 100 µM (inactive), the GI50 (NCI-H23) was > 100 µM (inactive) and the GI50 (T47D) was 22.3 µM (inactive). For the same compound, the GI50 (RXF 393) was 36.3 µM (inactive), the GI50 (A549) was 94.6 µM (inactive) and the GI50 (OVCAR-5) was > 100 µM (inactive). The GI50 (OVCAR-4) was > 100 µM (inactive), the GI50 (Hs-578T) was 43.7 µM (inactive) and the GI50 (NCI-H522) was 43.4 µM (inactive). The GI50 (DU-145) was > 100 µM (inactive), the GI50 (MDA-N) was > 100 µM (inactive) and the GI50 (SK-OV-3) was > 100 µM (inactive). For the same compound, the GI50 (SNB-19) was > 100 µM (inactive), the GI50 (MCF7) was 47.2 µM (inactive) and the GI50 (COLO 205) was > 100 µM (inactive). The GI50 (NCI/ADR-RES) was > 100 µM (inactive), the GI50 (U-251) was > 100 µM (inactive) and the GI50 (SF-295) was 81.1 µM (inactive). For the same compound, the GI50 (SW-620) was > 100 µM (inactive) and the GI50 (SF-539) was > 100 µM (inactive).
